According to publication PMC8839821, “Potential Mechanisms Involved in the Protective Effect of Dicaffeoylquinic Acids from Artemisia annua L. Leaves against Diabetes and Its Complications” (Molecules, 2022):

How the values were obtained:
[1] = target: T1, Dipeptidyl Peptidase IV (DPPIV) enzyme (Homo sapiens, UniProt P27487); assay: Dipeptidyl peptidase IV (DPPIV) inhibition assay (fluorometric inhibitor screening kit); type: biochemical; conditions: mean ± SEM of two replicates; read-out: DPPIV inhibitory activity IC50 (converted)
T1 construct: purchased Abnova
T1 sequence (P27487 whole entry, species assumed): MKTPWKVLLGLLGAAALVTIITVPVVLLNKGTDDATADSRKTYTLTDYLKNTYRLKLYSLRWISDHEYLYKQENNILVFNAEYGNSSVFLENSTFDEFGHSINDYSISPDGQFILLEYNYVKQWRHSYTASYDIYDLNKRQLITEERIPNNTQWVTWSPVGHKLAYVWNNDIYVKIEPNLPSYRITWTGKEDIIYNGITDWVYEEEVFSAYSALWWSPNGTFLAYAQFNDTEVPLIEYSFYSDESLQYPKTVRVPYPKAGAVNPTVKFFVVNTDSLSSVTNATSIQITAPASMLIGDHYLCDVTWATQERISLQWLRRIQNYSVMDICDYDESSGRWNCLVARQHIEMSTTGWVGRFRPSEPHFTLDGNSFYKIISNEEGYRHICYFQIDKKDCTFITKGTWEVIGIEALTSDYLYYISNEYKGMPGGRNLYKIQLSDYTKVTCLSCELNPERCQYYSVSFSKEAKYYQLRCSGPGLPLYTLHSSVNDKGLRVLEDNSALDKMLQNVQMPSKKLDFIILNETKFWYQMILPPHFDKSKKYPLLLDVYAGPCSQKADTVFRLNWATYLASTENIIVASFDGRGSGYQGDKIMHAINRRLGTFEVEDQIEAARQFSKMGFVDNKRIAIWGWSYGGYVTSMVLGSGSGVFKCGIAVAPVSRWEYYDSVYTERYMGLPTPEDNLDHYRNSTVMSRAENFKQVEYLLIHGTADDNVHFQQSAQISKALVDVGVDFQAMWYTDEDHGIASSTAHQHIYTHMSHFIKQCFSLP
Experimental: The dipeptidyl peptidase IV (DPPIV) inhibition effectiveness of the polar fraction of Artemisia annua (ART-CQ) and the isolated compounds was determined fluorometrically by using the DPPIV Inhibitor Screening Kit (Abnova, Taipei, Taiwan) following the manufacturer’s protocol. […] Then the enzyme substrate solution was added, and the […] was measured at Ex/Em = 360/460 nm. The plate was reincubated for 30 min at 37 °C and the […] was recorded again. Vidagliptin was used as the reference standard. The difference between the two readings was estimated and the IC50 was determined.

[2] = system: human skin fibroblast (HSF) cells; assay: In vitro cell viability / cytotoxicity (SRB assay); type: cell-based; conditions: 72 h incubation, highest tested concentration 100 µg/mL
Experimental: (§1) Human Skin Fibroblasts (HSF) cell line was obtained from Nawah Scientific Inc. (Mokatam, Cairo, Egypt). Cells were kept in DMEM media with […] of streptomycin, 100 units/mL of penicillin and 10% of heat-inactivated fetal bovine serum in humidified, 5% (v/v) CO2 atmosphere at 37 °C.
Effect of the alcoholic extract and the isolated compounds on cell viability was evaluated to assess their safety utilizing SRB assay. An aliquot of 100 µL cell suspension (5 × 10^3 cells) was incubated with 100 μL media containing the test samples at concentrations (0.01, 0.1, 1, 10, 100 µg/mL) for 72 h. Media was removed and 150 μL of 10% TCA was added for fixing the cells that was further incubated at 4 °C for 1h. Cells were then washed with distilled water and 70 μL 0.4% SRB solution was added, and plates were placed in dark for 10 min. Plates were then washed with 1% acetic acid and left to dry overnight. 150 μL of 10 mM TRIS was then added and the absorbance was measured at 540 nm using a BMG LABTECH®-FLUOstar Omega microplate reader (Ortenberg, Germany). Experiments were done in triplicates and the IC50 was calculated.

α-glucosidase = assay: α-Glucosidase inhibition assay (inhibitor screening kit); type: biochemical; conditions: mean ± SEM of two replicates
Experimental: The in vitro α-glucosidase inhibitory potential of ART-CQ and its isolated compounds was evaluated using the α-Glucosidase Inhibitor Screening Kit (Biovision, Milpitas, CA, USA). […] After incubation, 20 µL of the α-Glucosidase Substrate in buffer was added and the absorbance was measured kinetically at 410 nm for 60 min. The polar fraction was tested in concentrations (10, 50, 100, 200 µg/mL) while the concentrations of the isolated compounds were (5, 20, 50, 100 µg/mL).
The change in absorbance is directly proportional to enzyme activity and the presence of enzyme inhibitor reduces the formation of the end product with the resultant decrease in absorbance.

[3] = Ferric Reducing Antioxidant Power (FRAP) assay; conditions: ART-CQ 50 µg/mL, isolated compounds 25 µg/mL
Experimental: The DetectX® Ferric Reducing Antioxidant Power (FRAP™) Detection Kit (Arbor assays, Ann Arbor, MI, USA) was used to estimate the antioxidant and ferric reducing activity of the polar fraction of A. annua and the isolated compounds in accordance with the method of Benzie and Strain (1996). ART-CQ was utilized in a concentration of (50 µg/mL) while the isolated compounds were used in a concentration of (25 µg/mL). Ferric chloride standard and ascorbic acid control were used in the assay and the FRAP values were estimated and presented as µM FeCl2.

α-amylase enzyme = target: T2, α-amylase enzyme (Sus scrofa, UniProt P00690); assay: α-Amylase inhibition assay (CNPG3 hydrolysis, kinetic); type: biochemical, porcine pancreas
T2 construct: Alpha-amylase (porcine pancreas); purchased Sigma-Aldrich; host or cells: porcine pancreas
T2 sequence (P00690 16-511): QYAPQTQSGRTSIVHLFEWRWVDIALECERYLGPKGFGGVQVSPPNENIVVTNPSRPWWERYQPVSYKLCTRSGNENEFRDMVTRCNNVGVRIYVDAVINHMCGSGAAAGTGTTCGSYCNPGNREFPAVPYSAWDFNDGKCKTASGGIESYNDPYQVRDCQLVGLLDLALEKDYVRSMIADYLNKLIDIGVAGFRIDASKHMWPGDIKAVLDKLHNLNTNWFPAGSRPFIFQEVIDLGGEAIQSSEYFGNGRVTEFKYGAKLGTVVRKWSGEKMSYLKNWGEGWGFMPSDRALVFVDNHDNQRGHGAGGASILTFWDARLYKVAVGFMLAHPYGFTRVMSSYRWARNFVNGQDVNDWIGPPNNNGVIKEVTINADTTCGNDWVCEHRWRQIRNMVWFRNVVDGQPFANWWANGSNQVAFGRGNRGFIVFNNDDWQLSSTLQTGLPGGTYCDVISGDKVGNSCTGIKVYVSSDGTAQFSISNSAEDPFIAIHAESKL
Experimental: Alpha-amylase (porcine pancreas), 2-chloro-4-nitrophenyl-D-maltotrioside (CNPG3) and tetramethylsilane were from Sigma-Aldrich (St. Louis, MO, USA) while the remaining chemicals were from UFC Biotechnology. Spectrophotometric readings were performed using the microplate reader (Anthos Zenyth 200RT, Cambridge, UK). ^1H-NMR (400 MHz) analysis was carried out using Bruker NMR Spectrometer (Bruker, Yokohama, Japan). Spectra were recorded in CD3OD or DMSO-d6 with tetramethylsilane being employed as an internal standard, and chemical shift values were expressed in ppm.
The inhibitory effect of the polar fraction (ART-CQ) and isolated compounds from Artemisia Annua on the activity of α-amylase enzyme was assessed kinetically as previously described. […] The change in absorbance per min is proportional to the enzyme activity. Various concentrations of ART-CQ (10, 50, 100, 200 µg/mL) and isolated compounds (5, 20, 50, 100 µg/mL) were preincubated with the enzyme for 15 min at 37 °C before the addition of CNPG3.

[4] = DPPH radical scavenging assay; conditions: mean ± SEM of two replicates
Experimental: 2,2-diphenyl-1-picrylhydrazil (DPPH) Radical Scavenging Assay was exploited to assess the free radical scavenging potential of ART-CQ and the pure compounds according to Motaal et al., 2011 [52]. Different concentrations of ART-CQ (8, 16, 48, 64 µg/mL) and the isolated compounds (2, 4, 12, 16 µg/mL) were used. Ascorbic acid was used as the standard positive control and water was used in place of samples as a blank. The IC50 value for the test samples and standard was evaluated.

[5] = system: human skin fibroblast (HSF) cells; assay: Scratch wound healing assay; type: cell-based; conditions: for effect on scratch wound healing (in words): tested at 10, 100, 1000 µg/mL; for time to complete wound healing: control healed in 72 h
Experimental: as §1
The wound healing assay was conducted to evaluate the effect of different concentrations of the polar fraction and isolated compounds from Artemisia Annua on the migration ability of HSF cell line using the scratch wound healing assay as previously described. In a coated 12-well plates, cells were seeded at density of 2 × 10^5/well in 5% FBS-DMEM and cultured overnight at 37 °C and 5% CO2. On the following day, horizontal scratches were made into the confluent monolayer and the plates were washed with PBS and treated with fresh media containing the combined polar extract and the isolated compounds in concentrations of 10, 100, 1000 µg/mL. Control wells were done using only plain medium. The plates were incubated at 37 °C and 5% CO2 and images were captured using an inverted microscope at 24, 48 and 72 h time intervals. The acquired images were analyzed by MII ImageView software version 3.7. Experiments were performed in triplicates. Wound width was calculated as the average distance between the edges of the scratches. As cell migration enhanced, the wound width diminishes.

aldose reductase enzyme = aldose reductase enzyme (Homo sapiens, UniProt P15121); assay: Aldose reductase inhibition assay (NADPH decrease at 340 nm, screening kit)
Experimental: Aldose reductase inhibitory activity was determined kinetically by measuring the decrease in the absorption of NADPH at 340 nm in a reaction mixture containing, in addition to NADPH, the enzyme, DL-glyceraldehyde and the samples [50]. This was accomplished using the Aldose Reductase Inhibitor Screening Kit (Biovision, Milpitas, CA, USA), in accordance with the manufacturer’s instructions. […] Then 60 μL of NADPH and 90 μL of enzyme solution were added and the plate was incubated in dark for 20 min at 37 °C. Subsequently, 40 μL of DL-glyceraldehyde was pipetted and the absorbance was determined at 340 nm at 37 °C for 90 min.

Row | IC50 (aldose reductase enzyme) | IC50 (α-amylase enzyme; mean ± SEM of two replicates) | Compound | IC50 [1] | IC50 [2] | α-glucosidase inhibitory activity IC50 (α-glucosidase) | FRAP value relative to that of ascorbic acid [3] | α-amylase inhibitory effect (in words) (α-amylase enzyme) | DPPH free radical scavenging, concentration for 50% scavenging (IC50) [4] | effect on scratch wound healing (in words) [5] | wound width as % of the original wound width at 24 h ([5]; 10 µg/mL, 24 h, control 56%) | time to complete wound healing ([5]; 10 µg/mL) | wound width as % of the original wound width at 48 h ([5]; 10 µg/mL, 48 h, control 37%)
1 |  |  | O=C(C=Cc1ccc(O)c(O)c1)OC1CC(O)(C(=O)O)CC(OC(=O)C=Cc2ccc(O)c(O)c2)C1O (stereo not drawn) [Compound 1, 3,5-dicaffeoylquinic acid] | 0.436 µM | > 100 µg/mL | 157.13 ± 6.82 µg/mL | about 8 times that of the ascorbic acid | no α-amylase inhibitory effect | 30.94 ± 4.61 µg/mL | inhibited cell migration and wound healing |  |  | 
2 |  |  | O=C(C=Cc1ccc(O)c(O)c1)OC1CC(O)(C(=O)O)CC(O)C1OC(=O)C=Cc1ccc(O)c(O)c1 (stereo not drawn) [Compound 2, 4,5-dicaffeoylquinic acid] | 4.4 µM | > 100 µg/mL |  |  |  | 14.94 ± 0.60 µg/mL | improved the wound healing | 40% | 48 h | 
3 | 16.8 µM | 2.85 µM | COC(=O)C1(O)CC(O)C(OC(=O)C=Cc2ccc(O)c(O)c2)C(OC(=O)C=Cc2ccc(O)c(O)c2)C1 (stereo not drawn) [Compound 3, 3,4-dicaffeoylquinic acid methyl ester] | 1.08 µM | > 100 µg/mL | 250.42 ± 8.44 µg/mL | more than 30 times that of the ascorbic acid |  | 7.78 ± 0.24 µg/mL | improved the wound healing |  | 72 h | 23%
4 |  |  | O=C1O[C@H]([C@@H](O)CO)C(O)=C1O [ascorbic acid, reference compound] |  |  |  |  |  | 5.50 ± 0.30 µg/mL |  |  |  | 
